# Laboratory results taken from a melting point compilation (Tetko et al.; mined from patent text by program, amines drawn as free bases though some values may be those of a salt).
row,SMILES,melting point [°C]
1,COc1ccc(CCOc2ccc(C(=O)N/C(=C\c3ccc(OCC(F)F)cc3)C(=O)NCCO)cc2)cc1,172 to 174
2,CCOC(=O)C1C=Nc2c(ccc3ncccc23)N1O (stereo not drawn),223 to 225
3,Cc1ncccc1Cn1nnnc1-c1ccc(Cl)c(Cl)c1,176 to 178
4,C=C1COc2c(F)c(F)cc3c(=O)c(C(=O)OCC)cn1c23,258 to 263
5,"COc1cc2c(cc1O)C1Cc3c(Cl)cc(OC)c(OC(C)=O)c3CN1CC2 (single isomer, unassigned; (-))",172 to 173
6,C#CCN(Cc1cc2c(=O)[nH]c(C)nc2cc1Br)c1ccc(C(=O)NC(CO)c2cccc([N+](=O)[O-])c2)cc1 (stereo not drawn),221 to 232
7,COc1ccc(OC)c(-c2cccc3c2OC(CN)C3)c1 (stereo not drawn),128 to 132
8,Oc1ccc(-c2nn(-c3ccc(Br)cc3)c3c(C(F)(F)F)cccc23)cc1,176 to 177
9,Cc1nc2ccc3c(c2o1)OC(CN1C2CCC1CC(O)(c1ccccc1)C2)CO3 (stereo not drawn),203 to 205
10,COc1cc(OC)nc(C2(C#N)OC(=O)c3c(Cl)cccc32)n1 (stereo not drawn),159 to 161
11,c1ccc(-c2nc3c4ccccc4ccn3n2)cc1,157 to 158
12,O=C(NCCCN1CCCCC1)c1cccc(Nc2ncnc3[nH]cc(C(=O)c4ccccc4)c23)c1,> 300
13,CC1(C(O)(Cc2ccccc2Cl)Cn2cncn2)CCCC1 (stereo not drawn),110
14,CS(=O)c1cccc(-n2c(=O)n(Cc3ccncc3)c(=O)c3cccnc32)c1 (stereo not drawn),218 to 219
15,COCCOc1ccc(CCCNS(=O)(=O)c2ccc(Cl)cc2)c(Oc2ncc(C(F)(F)F)cc2Cl)c1,111 to 113
16,NC(=O)c1sc2nccc(N3CCCN(c4ccc(OCc5ccccc5)cc4)CC3)c2c1N,211 to 213
17,CSc1nnc2n1C=Cc1ccccc1C2c1ccccc1 (stereo not drawn),169 to 170
18,CO[C@@H]1CCN2C(=O)N(c3ccc(C#N)c4ccccc34)C(=O)[C@H]12 (relative stereo),185 to 186
19,O=C(NC1CN2CCC1CC2)C(O)(c1cccs1)c1cccs1 (stereo not drawn),169

row,SMILES,melting point [°C]
1,CC(C)(C)c1nnc(N=C=O)s1,261 to 263
2,O=C(C=NO)Nc1ccccc1F,120
3,CC(C)Cc1cc(-c2cccc(C=O)c2)c(S(=O)(=O)NC(C)(C)C)s1,96 to 98
4,Cc1c(C(=O)CCl)csc1C(=O)CCl,155 to 156
5,O=C(c1ccncc1)[N+]1([O-])CCN(C2c3ccc(Cl)cc3OCc3cccnc32)CC1 (stereo not drawn),206 to 208
6,CCC(=O)CC(=O)c1ccc(C2CCC(CC)CC2)cc1 (stereo not drawn),78
7,CC(C)(C)OC(=O)NC(Cc1ccccc1)C1CC(Cc2ccccc2)=NO1 (stereo not drawn),106 to 107
8,Cc1ccc(S(=O)(=O)Oc2ccc(S(=O)(=O)CC(=O)C(C)C)cc2)cc1,156 to 157
9,COCCc1nc2c(N)nc3c(c2n1CCOCCNS(C)(=O)=O)CCCC3,151 to 153
10,CC(C)(C)OC(=O)CN(C(=O)CN1C(=O)c2ccccc2C1=O)c1ccccc1F,140
11,CCc1ccc2c(c1)C(=O)Nc1cccnc1N2C(=O)NCCN1CCCCC1CN(CC)CC (stereo not drawn),124 to 126
12,CN1C(=O)C2(COc3cc4c(cc32)OCCO4)c2c(-c3cn[nH]c3)cccc21 (stereo not drawn),250 to 251
13,Cc1cccc(-c2ccc(C(=O)Nc3ccc4cc(CN5CCCC5)cnc4c3C)cc2)c1,151 to 152
14,O=C(O)c1cc(OCCCCCCc2cccc(O)c2O)ccc1O,159 to 161
15,COc1ccc2c(c1)S(=O)(=O)N=CN2CCCl,126 to 130
16,CCOC(=O)c1c(Cl)c2cccnc2n(C)c1=O,132 to 135
17,COc1cc2c(c(Cl)c1Cl)C(=O)C(C)(C1CCCC1)C2 (stereo not drawn),109 to 112
18,CCOC(=O)c1cn(C2CC2)c2c(F)c(N3CC[C@H](N)C3)c(F)cc2c1=O,227 to 228
19,CCCc1c(OCCCOc2ccc(C(=O)OCC)cc2Cl)ccc(C(C)=O)c1O,101 to 102
